Experimental data: US8093287B2, “Inhibitors of matrix metalloproteinases” (University of Notre Dame du Lac, priority 2005, dated 2012)
In brackets after ≈: the same amount, converted by molar mass. Read-outs that look alike come from different tables or passages of the source.

Tests used:
MMP-14cat = molecular target: T1, MMP-14cat (Homo sapiens, UniProt P50281); assay: Enzyme kinetics, MMP inhibition (Example 1); assay type: biochemical
T1 construct: MMP-2 (A), MMP-9 (B) and MMP-14cat (C)

MMP-9 [1] = molecular target: T2, MMP-9 (Homo sapiens, UniProt P14780); assay: Enzyme kinetics, MMP inhibition (Example 1); assay type: biochemical
Target sequence in this assay (P14780 94-707): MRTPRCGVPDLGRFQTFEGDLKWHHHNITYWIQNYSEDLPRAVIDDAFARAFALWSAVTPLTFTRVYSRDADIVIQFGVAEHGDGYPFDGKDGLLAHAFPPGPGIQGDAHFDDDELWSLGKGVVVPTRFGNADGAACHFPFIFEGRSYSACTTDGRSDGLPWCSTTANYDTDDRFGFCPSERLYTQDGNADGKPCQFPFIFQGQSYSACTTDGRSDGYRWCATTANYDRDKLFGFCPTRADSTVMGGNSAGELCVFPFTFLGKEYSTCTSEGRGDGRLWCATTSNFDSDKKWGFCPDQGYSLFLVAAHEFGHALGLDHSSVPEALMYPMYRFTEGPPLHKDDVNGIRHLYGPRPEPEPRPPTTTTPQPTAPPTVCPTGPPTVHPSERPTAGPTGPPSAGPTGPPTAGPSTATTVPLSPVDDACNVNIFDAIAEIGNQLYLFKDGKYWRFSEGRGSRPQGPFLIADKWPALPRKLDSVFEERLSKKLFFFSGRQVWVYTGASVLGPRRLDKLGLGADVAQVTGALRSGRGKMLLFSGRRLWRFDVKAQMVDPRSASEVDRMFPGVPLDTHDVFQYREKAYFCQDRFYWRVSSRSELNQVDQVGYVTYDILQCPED

MMP-7 [2] = molecular target: T3, MMP-7 (Homo sapiens, UniProt P09237); assay: Enzyme kinetics, MMP inhibition (Example 1); assay type: biochemical
T3 sequence (P09237 95-267): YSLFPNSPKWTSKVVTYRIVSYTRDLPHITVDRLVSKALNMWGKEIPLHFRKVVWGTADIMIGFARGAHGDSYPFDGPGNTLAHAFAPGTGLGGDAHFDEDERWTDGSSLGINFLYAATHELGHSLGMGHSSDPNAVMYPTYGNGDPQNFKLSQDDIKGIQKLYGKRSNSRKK

MMP-2 = molecular target: T4, MMP-2 (Homo sapiens, UniProt P08253); assay: Enzyme kinetics, MMP inhibition (Example 1); assay type: biochemical; conditions: for Ki: for 1.3 with slow-binding component
T4 sequence (P08253 110-660): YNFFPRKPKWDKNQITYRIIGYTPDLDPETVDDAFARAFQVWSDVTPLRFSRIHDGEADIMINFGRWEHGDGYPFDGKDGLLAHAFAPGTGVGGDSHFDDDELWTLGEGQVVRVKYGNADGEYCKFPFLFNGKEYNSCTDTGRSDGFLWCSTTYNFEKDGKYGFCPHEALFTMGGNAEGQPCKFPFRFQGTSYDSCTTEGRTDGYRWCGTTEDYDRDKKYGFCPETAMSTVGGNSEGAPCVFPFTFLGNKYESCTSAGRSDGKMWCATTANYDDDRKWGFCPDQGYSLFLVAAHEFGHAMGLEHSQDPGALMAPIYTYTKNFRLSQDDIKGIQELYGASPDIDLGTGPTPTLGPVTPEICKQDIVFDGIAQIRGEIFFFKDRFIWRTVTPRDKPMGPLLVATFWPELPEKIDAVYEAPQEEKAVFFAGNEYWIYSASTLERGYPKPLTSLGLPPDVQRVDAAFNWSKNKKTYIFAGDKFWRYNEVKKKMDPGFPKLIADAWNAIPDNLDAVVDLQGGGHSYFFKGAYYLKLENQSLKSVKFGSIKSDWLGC

MMP-3 [3] = molecular target: T5, MMP-3 (Homo sapiens, UniProt P08254); assay: Enzyme kinetics, MMP inhibition (Example 1); assay type: biochemical
Target sequence in this assay (P08254 100-477): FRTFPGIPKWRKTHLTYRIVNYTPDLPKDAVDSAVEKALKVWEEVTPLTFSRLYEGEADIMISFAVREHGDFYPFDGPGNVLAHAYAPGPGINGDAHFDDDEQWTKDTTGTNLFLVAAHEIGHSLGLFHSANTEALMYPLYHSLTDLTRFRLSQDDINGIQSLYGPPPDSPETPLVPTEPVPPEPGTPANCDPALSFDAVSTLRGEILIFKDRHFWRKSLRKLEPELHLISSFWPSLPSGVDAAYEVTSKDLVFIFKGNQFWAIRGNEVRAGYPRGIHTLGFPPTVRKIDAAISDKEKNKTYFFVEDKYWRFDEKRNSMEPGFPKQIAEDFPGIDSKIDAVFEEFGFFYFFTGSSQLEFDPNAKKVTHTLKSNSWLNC

MMP-1 [4] = molecular target: T6, MMP-1 (Homo sapiens, UniProt P03956); assay: Enzyme kinetics, MMP inhibition (Example 1); assay type: biochemical
T6 sequence (P03956 100-469): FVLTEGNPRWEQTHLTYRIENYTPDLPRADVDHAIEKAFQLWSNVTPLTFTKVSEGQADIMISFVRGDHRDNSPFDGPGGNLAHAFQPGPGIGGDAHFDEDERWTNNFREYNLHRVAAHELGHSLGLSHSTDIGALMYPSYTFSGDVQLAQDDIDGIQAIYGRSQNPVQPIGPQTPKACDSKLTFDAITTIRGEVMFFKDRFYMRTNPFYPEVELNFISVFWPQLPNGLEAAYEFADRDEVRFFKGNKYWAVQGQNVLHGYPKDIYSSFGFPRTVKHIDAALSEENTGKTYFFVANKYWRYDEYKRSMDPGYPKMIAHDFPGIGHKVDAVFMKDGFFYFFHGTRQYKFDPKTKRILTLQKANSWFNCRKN

physchem = conditions: 37 °C, pH 7.5, aqueous with cosolvent or surfactant or cyclodextrin, kinetic from dmso stock
HT1080 cells [5] = assay: Tumor cell invasion, Matrigel-coated Transwell; assay type: cell-based; conditions: Homo sapiens, HT-1080; 100 nM; Matrigel-coated filters, 18 h
Method: (§1) FIG. 7 illustrates inhibition of HT1080 cell motility and invasion by inhibitor 2.3. A-B: Confluent cultures of HT1080 cells in 6-well plates were treated with mitomycin C (25 μg/ml) in serum-free DMEM media for 30 minutes. Scratch wounds were made on the monolayers and the wounded cultures were then incubated with serum-free DMEM supplemented without or with various amounts of inhibitor 2.3 (0-20 μM) for up to 20 hours. At each time period, the cultures were photographed (A) and the width of the scratch wound was measured as described under the Experimental Procedures section of Example 2. (C): HT1080 cells were seeded in 8-μm pore Transwell filters coated with Matrigel (50 μg/filter) in the presence or absence of inhibitor 2.3 (0.1-10 μM). The number of cells that invaded to the lower side of the filter was counted in three representative fields. Each value represents the mean±SE of four independent determinations. *P<0.05, and *P<0.001 when tested against the control using Tukey-Kramer Multiple Comparisons Test (P=0.004 by ANOVA).
Tumor cell invasion was carried out in 8-μm pore Transwell inserts (Becton Dickinson, Boston, Mass.) coated with 50 μg Matrigel per filter. […] The cells that migrated to the lower side of the Matrigel-coated filter were fixed and stained with Diff-Quik® (Dade Behring Inc., Newark, Del.), and counted under a microscope in three different fields. […]

HT1080 cells [6] = assay: Chemosensitivity assay (WST-1); assay type: cell-based, human; conditions: up to 10 μM, 18 hours
Method: Chemosensitivity Assay—Cell viability after exposure of the cells to the inhibitors was assessed by 2-(4-iodophenyl)-3-(4-nitrophenyl)-5-(2,4-disulfophenyl)-2H-tetrazolium, monosodium salt (WST-1, Roche Diagnostics Gmbh, Mannheim, Germany) staining Briefly, HT1080 cells (2×10^4 cells/well) were seeded in 96-well culture plates in complete medium. After overnight culture, the medium was replaced with serum and phenol-free media containing 0.1% BSA and supplemented with or without inhibitor 2.3 (0-10 μM final concentrations). Control medium was supplemented with 1% DMSO. After 18 hours incubation, WST-1 (10 μL/well) was added and the difference in absorbance at 450 and 655 (reference filter) nm was measured using a Bio-Rad Benchmark microplate reader. Data were collected using the Microplate Manager software. The absorbance of blank wells containing control media but no cells (typically <5%) was subtracted. Each treatment was assayed in quadruplicate.

MMP-9 [7] = molecular target: T2, MMP-9; conditions: read-out: Ki of the slow-binding component
Target sequence in this assay (P14780 107-707 limits assumed): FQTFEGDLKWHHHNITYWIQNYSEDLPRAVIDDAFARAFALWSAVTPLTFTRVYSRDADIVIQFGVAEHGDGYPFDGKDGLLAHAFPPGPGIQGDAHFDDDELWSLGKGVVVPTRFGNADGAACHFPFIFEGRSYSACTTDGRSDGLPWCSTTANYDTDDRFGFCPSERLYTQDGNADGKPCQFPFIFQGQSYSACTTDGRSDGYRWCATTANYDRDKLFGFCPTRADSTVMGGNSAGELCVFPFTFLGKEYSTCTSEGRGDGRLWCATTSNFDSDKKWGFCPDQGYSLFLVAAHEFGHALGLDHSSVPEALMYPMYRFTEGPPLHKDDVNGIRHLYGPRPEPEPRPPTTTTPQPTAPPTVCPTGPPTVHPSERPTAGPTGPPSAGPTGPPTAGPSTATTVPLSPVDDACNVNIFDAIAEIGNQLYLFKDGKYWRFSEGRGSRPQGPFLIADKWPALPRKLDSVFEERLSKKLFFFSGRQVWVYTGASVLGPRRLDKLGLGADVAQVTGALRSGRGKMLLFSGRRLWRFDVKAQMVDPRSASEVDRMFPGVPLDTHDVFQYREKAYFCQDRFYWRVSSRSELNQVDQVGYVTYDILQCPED

MMP-1 [8] = molecular target: T6, MMP-1; assay: biochemical
HT1080 cells [9] = assay: Migration assay, scratch wound; assay type: cell-based, human
Method: as §1
Migration and Invasion Assays—For migration assays, HT1080 cells were cultured in 6-well plates in complete media until they reached confluence. […] The extent of wound closure in the presence or absence of inhibitor was quantified by measuring the width of the wound with a ruler using an amplified PowerPoint figure.

MMP-14 [10] = molecular target: T7, MMP-14 (Homo sapiens, UniProt P50281); conditions: MMP-14, slow-binding component, koff/kon
MMP-3 [11] = molecular target: T5, MMP-3; conditions: MMP-3, rapid competitive inhibition
Target sequence in this assay (P08254 100-272 limits assumed): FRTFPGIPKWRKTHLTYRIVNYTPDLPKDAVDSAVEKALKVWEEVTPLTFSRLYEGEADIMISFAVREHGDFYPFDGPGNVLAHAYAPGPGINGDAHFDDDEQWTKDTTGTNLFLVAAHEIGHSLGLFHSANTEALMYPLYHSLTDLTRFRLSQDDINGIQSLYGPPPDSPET

MMP-7 [12] = molecular target: T3, MMP-7; conditions: MMP-7, rapid competitive inhibition
MMP-14 [13] = molecular target: T7, MMP-14; assay: biochemical
MMP-3 [14] = molecular target: T5, MMP-3; assay: biochemical
Target sequence in this assay (P08254 100-272 limits assumed): as above

MMP-9 [15] = molecular target: T2, MMP-9; assay: biochemical
Target sequence in this assay (P14780 107-707 limits assumed): as the sequence (P14780 107-707 limits assumed) above

MMP-7 [16] = molecular target: T3, MMP-7; assay: biochemical
[17] = Assessment of inhibitor solubility; conditions: 37 °C, pH 7.5, aqueous with cosolvent or surfactant or cyclodextrin, kinetic from dmso stock

With “2-(4-{4-[(2-Thiiranylpropyl)sulfonyl]phenoxy}phenyl)acetic acid [Compound 1.4]” the Ki (MMP-14cat) was 53 µM, the Ki (MMP-9 [1]) was 4.1 µM and the Ki (MMP-7 [2]) was 250 µM. For the same molecule, the Ki (MMP-2) was 0.46 µM, the Ki (MMP-3 [3]) was 540 µM and the Ki (MMP-1 [4]) was 4.5 µM.
With `O=S(=O)(CC1CS1)c1ccc(Oc2ccccc2)cc1` (stereo not drawn) [Compound 2.1, reference compound] the solubility (physchem) was 80 µM (≈ 24.5 µg/mL).
With `CS(=O)(=O)Nc1ccc(Oc2ccc(S(=O)(=O)CC3CS3)cc2)cc1` (stereo not drawn) [Compound 2.3, {4-[4-(Methanesulfonamido)phenoxy]phenylsulfonyl}methylthiirane] the inhibition at 0.1 µM (HT1080 cells [5]) was greater than 25%, the “cell toxicity (WST-1)” value (HT1080 cells [6]) was “no evidence of cell toxicity” and the Ki (MMP-9 [7]) was 0.18 ± 0.05 µM. For the same molecule, the Ki (MMP-1 [8]) was greater than 25 µM, the solubility (physchem) was 340 µM (≈ 136 µg/mL) and the “migration in scratch wound assay” value (HT1080 cells [9]; 200 nM) was “slower migration”. It also gave an inhibition at 2 µM (HT1080 cells [9]; Homo sapiens, HT-1080) of 80%, a Ki (MMP-14 [10]) of 0.9 ± 0.1 µM and a Ki (MMP-3 [11]) of 3.6 ± 0.2 µM. For the same molecule, the Ki (MMP-7 [12]) was 295 ± 10 µM.
Molecule `O=[N+]([O-])c1ccc(Oc2ccc(S(=O)(=O)CC3CO3)cc2)cc1` (stereo not drawn) [Compound 2.4, [4-(4-Nitrophenoxy)phenylsulfonyl]methyloxirane] has a Ki (MMP-14 [13]) of 76 ± 13 µM, a Ki (MMP-1 [8]) greater than 298 µM and a Ki (MMP-3 [14]) greater than 190 µM. The Ki (MMP-9 [15]) was 25 ± 5 µM and the Ki (MMP-7 [16]) was 130 ± 15 µM.
For `O=[N+]([O-])c1ccc(Oc2ccc(S(=O)(=O)CC3CS3)cc2)cc1` (stereo not drawn) [Compound 2.5, [4-(4-Nitrophenoxy)phenylsulfonyl]methylthiirane], the Ki (MMP-14 [13]) was 4.9 ± 0.3 µM, the Ki (MMP-1 [8]) was 67 ± 18 µM and the Ki (MMP-3 [14]) was 131 ± 9 µM. For the same molecule, the solubility [17] was 60 µM (≈ 21.1 µg/mL), the Ki (MMP-9 [15]) was 1 ± 0.1 µM and the Ki (MMP-7 [16]) was 153 ± 16 µM.
Molecule `CC(=O)Nc1ccc(Oc2ccc(S(=O)(=O)CC3CO3)cc2)cc1` (stereo not drawn) [Compound 2.6, [4-(4-Acetamidophenoxy)phenylsulfonyl]methyloxirane] has a Ki (MMP-14 [13]) greater than 230 µM, a Ki (MMP-1 [8]) greater than 154 µM and a Ki (MMP-3 [14]) greater than 188 µM. The Ki (MMP-9 [15]) was 34 ± 3 µM and the Ki (MMP-7 [16]) was greater than 184 µM.
In the case of `CC(=O)Nc1ccc(Oc2ccc(S(=O)(=O)CC3CS3)cc2)cc1` (stereo not drawn) [Compound 2.7, [4-(4-Acetamidophenoxy)phenylsulfonyl]methylthiirane], the solubility (physchem) is reported as 540 µM (≈ 196 µg/mL).
For “Methyl 2-(4-{4-[(2-Thiiranylpropyl)sulfonyl]phenoxy}phenyl)-acetate [Compound 1.3]”, the Ki (MMP-14cat) was 0.59 ± 0.07 µM, the Ki (MMP-9 [1]) was 0.04 ± 0.002 µM and the Ki (MMP-7 [2]) was 13 µM. The “koff, slow-binding component of inhibition” value (MMP-2) was “(6.2 ± 0.7) × 10^−4 s^−1”, the “kon, slow-binding component of inhibition” value (MMP-2) was “(1.2 ± 0.3) 10^4 M^−1s^−1” and the Ki (MMP-2) was 0.05 ± 0.014 µM. The Ki (MMP-3 [3]) was 8.7 µM and the Ki (MMP-1 [4]) was 11 µM.
